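Briefly, cells in 96-well plates were exposed to five compound concentrations for 48 h, and endpoints were estimated by linear interpolation. The concentration for full growth arrest is given as TGI.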
Columns and labels:
Experiment in all cases: NCI anticancer screen, dose series, 48 h
786-0 renal = tested on: 786-0 renal
A549 NSCLC = tested on: A549 NSCLC
COLO 205 colon = tested on: COLO 205 colon
HCT-116 colon = tested on: HCT-116 colon
HCT-15 colon = tested on: HCT-15 colon
HT29 colon = tested on: HT29 colon
IGROV1 ovarian = tested on: IGROV1 ovarian
M14 melanoma = tested on: M14 melanoma
NCI-H23 lung = tested on: NCI-H23 lung
OVCAR-5 ovarian = tested on: OVCAR-5 ovarian
OVCAR-8 ovarian = tested on: OVCAR-8 ovarian
SK-MEL-5 melanoma = tested on: SK-MEL-5 melanoma
SK-OV-3 ovarian = tested on: SK-OV-3 ovarian
SNB-75 CNS = tested on: SNB-75 CNS
CAKI-1 renal = tested on: CAKI-1 renal
OVCAR-3 ovarian = tested on: OVCAR-3 ovarian
PC-3 prostate = tested on: PC-3 prostate
SF-295 CNS = tested on: SF-295 CNS

| Compound | TGI (786-0 renal) | TGI (A549 NSCLC) | TGI (COLO 205 colon) | TGI (HCT-116 colon) | TGI (HCT-15 colon) | TGI (HT29 colon) | TGI (IGROV1 ovarian) | TGI (M14 melanoma) | TGI (NCI-H23 lung) | TGI (OVCAR-5 ovarian) | TGI (OVCAR-8 ovarian) | TGI (SK-MEL-5 melanoma) | TGI (SK-OV-3 ovarian) | TGI (SNB-75 CNS) | TGI (CAKI-1 renal) | TGI (OVCAR-3 ovarian) | TGI (PC-3 prostate) | TGI (SF-295 CNS) |
| --- | --- | --- | --- | --- | --- | --- | --- | --- | --- | --- | --- | --- | --- | --- | --- | --- | --- | --- |
| CCN(CC)CC(=O)NC1c2ccccc2Oc2c(C)cccc21 (stereo not drawn) | > 100 µM | > 100 µM | > 100 µM | > 100 µM | > 100 µM | > 100 µM | > 100 µM | > 100 µM | > 100 µM | > 100 µM | > 100 µM | > 100 µM | > 100 µM | > 100 µM |  |  |  |  |
| C/C(=N/NC(=O)C[n+]1ccccc1)C(CN(CC(C)C)CC(C)C)C(=O)Nc1ccc(C)cc1C (stereo not drawn) | > 100 µM | > 100 µM | > 100 µM | > 100 µM |  | > 100 µM | > 100 µM | > 100 µM | > 100 µM | > 100 µM | > 100 µM | > 100 µM | > 100 µM |  |  |  |  |  |
| CN(C)/C=N\c1nncc2[nH]cnc12 | > 100 µM | > 100 µM | > 100 µM | > 100 µM | > 100 µM | > 100 µM | > 100 µM | > 100 µM | > 100 µM | > 100 µM | > 100 µM | > 100 µM | > 100 µM | > 100 µM | > 100 µM | > 100 µM | > 100 µM | > 100 µM |
| C#CCNC(=O)NCCCCC(NC(C)=O)C(=O)NCc1ccccc1 (stereo not drawn) | > 100 µM | > 100 µM | > 100 µM | > 100 µM | > 100 µM | > 100 µM | > 100 µM | > 100 µM | > 100 µM | > 100 µM | > 100 µM | > 100 µM | > 100 µM | > 100 µM | > 100 µM | > 100 µM |  | > 100 µM |
| C[C@@H]1O[C@]2(O)[C@@H]3CCCN3S(=O)(=O)CCN2C1=O | > 100 µM | > 100 µM | > 100 µM | > 100 µM | > 100 µM | > 100 µM | > 100 µM | > 100 µM | > 100 µM | > 100 µM | > 100 µM | > 100 µM | > 100 µM | > 100 µM | > 100 µM | > 100 µM |  | > 100 µM |
| O=C(N/N=C(/c1nc2ccc([N+](=O)[O-])cc2[nH]c1=O)C(O)c1ccc([N+](=O)[O-])cc1)c1ccncc1 (stereo not drawn) | > 100 µM | > 100 µM | > 100 µM | > 100 µM | > 100 µM | > 100 µM | > 100 µM | > 100 µM | > 100 µM | > 100 µM | > 100 µM | > 100 µM | > 100 µM | > 100 µM | > 100 µM |  |  | > 100 µM |
| CCOC(=O)c1cnc2c(ccc3[nH]cccc32)c1=O | > 100 µM | > 100 µM | > 100 µM | > 100 µM | > 100 µM | > 100 µM | > 100 µM | > 100 µM | > 100 µM | > 100 µM | > 100 µM | > 100 µM | > 100 µM | > 100 µM |  | > 100 µM |  |  |
| COc1cc(C2C(C(=O)Nc3ccc([N+](=O)[O-])cc3)=C(C)NC(C)=C2C(=O)Nc2ccc([N+](=O)[O-])cc2)ccc1O | > 100 µM | > 100 µM | 30.9 µM | 30.9 µM | 50.8 µM | 38.1 µM | 65.4 µM | > 60.5 µM | > 77.1 µM | > 95.8 µM | > 54.2 µM | > 100 µM | 77.8 µM | > 86.3 µM | > 86.6 µM | 55.7 µM |  | 65.7 µM |
| CC12C(=C(C#N)C(=N)N1c1ccc(Cl)c(Cl)c1)C=C(O)CC2SCCS(=O)(=O)O (stereo not drawn) | > 100 µM | > 100 µM | > 100 µM | > 100 µM | > 100 µM | > 100 µM | > 100 µM |  | > 100 µM |  | > 100 µM | > 100 µM | > 100 µM | > 100 µM | > 100 µM | > 100 µM |  | > 100 µM |
| CCOc1ccc(/C=C(\Cl)c2ccc(OC)cc2)cc1 | > 100 µM | > 100 µM | > 100 µM | > 100 µM | > 100 µM | > 100 µM | > 100 µM | > 100 µM | > 100 µM |  | > 100 µM | > 100 µM | > 100 µM | > 100 µM |  |  |  | > 100 µM |
| CC1(C)OCN(c2ccc(S(N)(=O)=O)cc2)Cn2c1nc1ccccc12 | > 100 µM | > 100 µM | > 100 µM | > 100 µM | > 100 µM | > 100 µM | > 100 µM | > 100 µM | > 100 µM |  | > 100 µM |  | > 100 µM | > 100 µM |  | > 100 µM |  | > 100 µM |
| CC(C)N(C(=O)C12C3C4C1C1C2C3C41I)C(C)C (stereo not drawn) | > 100 µM | > 100 µM | > 100 µM | > 100 µM |  | > 100 µM | > 100 µM | > 100 µM | > 100 µM | > 100 µM | > 100 µM | > 100 µM | > 100 µM | > 100 µM | > 100 µM | > 100 µM |  | > 100 µM |
| C[C@@]1(Cc2ccccc2)C(=O)N2[C@@H](CO)C(c3ccccc3)O[C@]2(C)c2ccccc21 (stereo partly drawn) | > 100 µM | > 100 µM | > 100 µM | > 100 µM | > 100 µM |  | > 100 µM | > 100 µM | > 100 µM | > 100 µM | > 100 µM | > 100 µM | > 100 µM | > 100 µM | > 100 µM | > 100 µM |  | > 100 µM |
| Oc1cc(CN2CCOCCOCCOCCOCC2)c(O)cc1CN1CCOCCOCCOCCOCC1 | 58.5 µM | > 100 µM | 39.6 µM | 43.4 µM | > 67.4 µM | > 73.3 µM | > 100 µM | 38.9 µM | > 100 µM | 61.6 µM | > 100 µM | > 100 µM | > 100 µM | > 100 µM | 38.9 µM | > 100 µM |  | > 100 µM |

Source: PubChem BioAssay (NCI)
